[ ]: non-standard residue; d: D form. Ahx = NCCCCCC(=O)O

The test system of the first assay is H460 lung cancer cells. As to the kind of experiment: Apoptosis in H460 lung cancer cells. As to conditions: alanine scan, H460 lung cancer cells. It is filed as cell-based.
For “acetyl-ASRSLHSLLGXmmrrr-amide [SEQ ID NO: 61]”, the “apoptotic effect of alanine-substituted Nur77-9” value (from here on “apoptotic effect”) is given as “largely impaired”.

For “acetyl-FSRSAHSLLGXrrrrrrrr-amide (Ac-FSRSAHSLLG[Ahx][dR][dR][dR][dR][dR][dR][dR][dR]-NH2; SMILES CC(=O)N[C@@H](Cc1ccccc1)C(=O)N[C@@H](CO)C(=O)N[C@@H](CCCNC(=N)N)C(=O)N[C@@H](CO)C(=O)N[C@@H](C)C(=O)N[C@@H](Cc1c[nH]cn1)C(=O)N[C@@H](CO)C(=O)N[C@@H](CC(C)C)C(=O)N[C@@H](CC(C)C)C(=O)NCC(=O)NCCCCCC(=O)N[C@H](CCCNC(=N)N)C(=O)N[C@H](CCCNC(=N)N)C(=O)N[C@H](CCCNC(=N)N)C(=O)N[C@H](CCCNC(=N)N)C(=O)N[C@H](CCCNC(=N)N)C(=O)N[C@H](CCCNC(=N)N)C(=O)N[C@H](CCCNC(=N)N)C(=O)N[C@H](CCCNC(=N)N)C(N)=O) [SEQ ID NO: 62]”, the “apoptotic effect” value was “largely impaired”. As for “acetyl-FSRSLHSALGXrrrrrrrr-amide (Ac-FSRSLHSALG[Ahx][dR][dR][dR][dR][dR][dR][dR][dR]-NH2; SMILES CC(=O)N[C@@H](Cc1ccccc1)C(=O)N[C@@H](CO)C(=O)N[C@@H](CCCNC(=N)N)C(=O)N[C@@H](CO)C(=O)N[C@@H](CC(C)C)C(=O)N[C@@H](Cc1c[nH]cn1)C(=O)N[C@@H](CO)C(=O)N[C@@H](C)C(=O)N[C@@H](CC(C)C)C(=O)NCC(=O)NCCCCCC(=O)N[C@H](CCCNC(=N)N)C(=O)N[C@H](CCCNC(=N)N)C(=O)N[C@H](CCCNC(=N)N)C(=O)N[C@H](CCCNC(=N)N)C(=O)N[C@H](CCCNC(=N)N)C(=O)N[C@H](CCCNC(=N)N)C(=O)N[C@H](CCCNC(=N)N)C(=O)N[C@H](CCCNC(=N)N)C(N)=O) [SEQ ID NO: 63]”, the “apoptotic effect” value was “largely impaired”.

For “acetyl-FSRSLHSLAGXrrrrrrrr-amide (Ac-FSRSLHSLAG[Ahx][dR][dR][dR][dR][dR][dR][dR][dR]-NH2; SMILES CC(=O)N[C@@H](Cc1ccccc1)C(=O)N[C@@H](CO)C(=O)N[C@@H](CCCNC(=N)N)C(=O)N[C@@H](CO)C(=O)N[C@@H](CC(C)C)C(=O)N[C@@H](Cc1c[nH]cn1)C(=O)N[C@@H](CO)C(=O)N[C@@H](CC(C)C)C(=O)N[C@@H](C)C(=O)NCC(=O)NCCCCCC(=O)N[C@H](CCCNC(=N)N)C(=O)N[C@H](CCCNC(=N)N)C(=O)N[C@H](CCCNC(=N)N)C(=O)N[C@H](CCCNC(=N)N)C(=O)N[C@H](CCCNC(=N)N)C(=O)N[C@H](CCCNC(=N)N)C(=O)N[C@H](CCCNC(=N)N)C(=O)N[C@H](CCCNC(=N)N)C(N)=O) [SEQ ID NO: 64]”, the “apoptotic effect” value was “largely impaired”.

System in another assay: not listed separately
The assay can be described thus: Induction of apoptosis by Nur77 peptides, cell line not stated.
Conditions: not given
The class given is cell-based. As for the experimental part:
Apoptosis assays—For nuclear morphological change analysis, cells were trypsinized, washed with PBS, fixed with 3.7% paraformaldehyde, and stained with DAPI (4,6-diamidino-2-phenylindole) (50 μg/ml) to visualize the nuclei by UV-microscopy. The percentages of apoptotic cells were determined by counting 300 GFP-positive cells, scoring cells having nuclear fragmentation and/or chromatin condensation.
In the case of “acetyl------------FAALSALVLGXrrrrrrrr-amide (Ac-FAALSALVLG[Ahx][dR][dR][dR][dR][dR][dR][dR][dR]-NH2; SMILES CC(=O)N[C@@H](Cc1ccccc1)C(=O)N[C@@H](C)C(=O)N[C@@H](C)C(=O)N[C@@H](CC(C)C)C(=O)N[C@@H](CO)C(=O)N[C@@H](C)C(=O)N[C@@H](CC(C)C)C(=O)N[C@H](C(=O)N[C@@H](CC(C)C)C(=O)NCC(=O)NCCCCCC(=O)N[C@H](CCCNC(=N)N)C(=O)N[C@H](CCCNC(=N)N)C(=O)N[C@H](CCCNC(=N)N)C(=O)N[C@H](CCCNC(=N)N)C(=O)N[C@H](CCCNC(=N)N)C(=O)N[C@H](CCCNC(=N)N)C(=O)N[C@H](CCCNC(=N)N)C(=O)N[C@H](CCCNC(=N)N)C(N)=O)C(C)C) [SEQ ID NO: 17]”, the induction of apoptosis result is listed as “apoptotic”.

As for “acetyl------------FGDWIDSILGXrrrrrrrr-amide (Ac-FGDWIDSILG[Ahx][dR][dR][dR][dR][dR][dR][dR][dR]-NH2; SMILES CC[C@H](C)[C@H](NC(=O)[C@H](CO)NC(=O)[C@H](CC(=O)O)NC(=O)[C@@H](NC(=O)[C@H](Cc1c[nH]c2ccccc12)NC(=O)[C@H](CC(=O)O)NC(=O)CNC(=O)[C@H](Cc1ccccc1)NC(C)=O)[C@@H](C)CC)C(=O)N[C@@H](CC(C)C)C(=O)NCC(=O)NCCCCCC(=O)N[C@H](CCCNC(=N)N)C(=O)N[C@H](CCCNC(=N)N)C(=O)N[C@H](CCCNC(=N)N)C(=O)N[C@H](CCCNC(=N)N)C(=O)N[C@H](CCCNC(=N)N)C(=O)N[C@H](CCCNC(=N)N)C(=O)N[C@H](CCCNC(=N)N)C(=O)N[C@H](CCCNC(=N)N)C(N)=O) [SEQ ID NO: 16]”, the induction of apoptosis result is given as “apoptotic”.

For “acetyl------------FYLKLEDLVGXrrrrrrrr-amide (Ac-FYLKLEDLVG[Ahx][dR][dR][dR][dR][dR][dR][dR][dR]-NH2; SMILES CC(=O)N[C@@H](Cc1ccccc1)C(=O)N[C@@H](Cc1ccc(O)cc1)C(=O)N[C@@H](CC(C)C)C(=O)N[C@@H](CCCCN)C(=O)N[C@@H](CC(C)C)C(=O)N[C@@H](CCC(=O)O)C(=O)N[C@@H](CC(=O)O)C(=O)N[C@@H](CC(C)C)C(=O)N[C@H](C(=O)NCC(=O)NCCCCCC(=O)N[C@H](CCCNC(=N)N)C(=O)N[C@H](CCCNC(=N)N)C(=O)N[C@H](CCCNC(=N)N)C(=O)N[C@H](CCCNC(=N)N)C(=O)N[C@H](CCCNC(=N)N)C(=O)N[C@H](CCCNC(=N)N)C(=O)N[C@H](CCCNC(=N)N)C(=O)N[C@H](CCCNC(=N)N)C(N)=O)C(C)C) [SEQ ID NO: 18]”, the induction of apoptosis result is “apoptotic”. Same read-out and setting: the value for “acetyl------------LLSHLSRSFGXrrrrrrrr-amide (Ac-LLSHLSRSFG[Ahx][dR][dR][dR][dR][dR][dR][dR][dR]-NH2; not fully specified; printed as acetyl------------LLSHLSRSFGXrrrrrrrr-amide) [Nur77/1 (inverso)]” was “apoptotic”. In the case of “acetyl------------llshlsrsfGXrrrrrrrr-amide (Ac-[dL][dL][dS][dH][dL][dS][dR][dS][dF]G[Ahx][dR][dR][dR][dR][dR][dR][dR][dR]-NH2; SMILES CC(=O)N[C@H](CC(C)C)C(=O)N[C@H](CC(C)C)C(=O)N[C@H](CO)C(=O)N[C@H](Cc1c[nH]cn1)C(=O)N[C@H](CC(C)C)C(=O)N[C@H](CO)C(=O)N[C@H](CCCNC(=N)N)C(=O)N[C@H](CO)C(=O)N[C@H](Cc1ccccc1)C(=O)NCC(=O)NCCCCCC(=O)N[C@H](CCCNC(=N)N)C(=O)N[C@H](CCCNC(=N)N)C(=O)N[C@H](CCCNC(=N)N)C(=O)N[C@H](CCCNC(=N)N)C(=O)N[C@H](CCCNC(=N)N)C(=O)N[C@H](CCCNC(=N)N)C(=O)N[C@H](CCCNC(=N)N)C(=O)N[C@H](CCCNC(=N)N)C(N)=O) [Nur77/1(retro-inverso)]”, the induction of apoptosis entry is “apoptotic”. Consider “acetyl---F——L_LLGXrrrrrrrr-amide (Ac-FLLLG[Ahx][dR][dR][dR][dR][dR][dR][dR][dR]-NH2; SMILES CC(=O)N[C@@H](Cc1ccccc1)C(=O)N[C@@H](CC(C)C)C(=O)N[C@@H](CC(C)C)C(=O)N[C@@H](CC(C)C)C(=O)NCC(=O)NCCCCCC(=O)N[C@H](CCCNC(=N)N)C(=O)N[C@H](CCCNC(=N)N)C(=O)N[C@H](CCCNC(=N)N)C(=O)N[C@H](CCCNC(=N)N)C(=O)N[C@H](CCCNC(=N)N)C(=O)N[C@H](CCCNC(=N)N)C(=O)N[C@H](CCCNC(=N)N)C(=O)N[C@H](CCCNC(=N)N)C(N)=O) [SEQ ID NO: 40]”, for which the induction of apoptosis entry is on record as “apoptotic”.
